Reference: paper PMC9738531, “Cholinesterases Inhibition, Anticancer and Antioxidant Activity of Novel Benzoxazole and Naphthoxazole Analogs” (Molecules, 2022)

Tests used:
[1] = target: T1, Acetylcholinesterase (AChE, E.C. 3.1.1.7, from human erythrocytes) (Homo sapiens, UniProt P22303); experiment: biochemical
T1 construct: Acetylcholinesterase (AChE, E.C. 3.1.1.7, from human erythrocytes); purchased Sigma-Aldrich (Steinheim, Germany); host or cells: human erythrocytes (natural source)
Procedure: (§1) The compounds were evaluated by an in vitro assay as the AChE and BChE inhibitors. The studies were carried out using the modified Ellman’s method. […] The inhibitory activities against AChE and BChE of the newly-synthesized compounds were determined exactly, according to a previous paper. […] The samples were analysed in triplicate. IC50 values were designated from a dose–response curve obtained by plotting the percentage of inhibition versus the log concentration, using GraphPad Prism 8 software. […] AChE and BChE activity data were compared using the Kruskal–Wallis test at the significance level of 1%.

[2] = target: T2, butyrylcholinesterase (BChE, E.C. 3.1.1.8, from equine serum) (Equus caballus, UniProt P81908); experiment: biochemical; conditions: means ± SEM of three independent experiments
T2 construct: butyrylcholinesterase (BChE, E.C. 3.1.1.8, from equine serum); purchased Sigma-Aldrich (Steinheim, Germany); host or cells: equine serum (natural source)
Procedure: as §1

[3] = DPPH free radical scavenging activity; conditions: concentration scavenging 50% of DPPH radicals; means ± SD of three experiments
Procedure: To evaluate the antioxidant potential of compounds as radical scavengers versus the stable free radicals, 2,2-diphenylpicrylhydrazyl (DPPH) was applied. Antioxidant properties were expressed as the IC50 value—the concentration of compound required for scavenging 50% of DPPH radicals. […].
The DPPH free radical scavenging activities of the synthesized compounds were measured by DPPH, according to the method described in the paper. The free radical scavenging activity was measured as a decrease in the absorbance of DPPH, and calculated using the equation:DPPH scavenging effects (%) = […] [(A0 − A1)/A0]∙100](2) where: A0 was the absorbance of the control reaction and A1 absorbance in the presence of the sample of the analysed compounds [62]. The IC50 values were calculated as the concentration of compound required for scavenging 50% of DPPH [45]. Results were presented as the mean ± standard deviation (SD). The antioxidant activity data were compared using the one-way ANOVA test at the significance level 5%.

[4] = tested on: HCV29T (bladder cancer) cells; experiment: SRB antiproliferative assay, HCV29T; type: cell-based, human; conditions: Homo sapiens, HCV29T, 72 h, means ± SD, read-out: IC50 HCV 29T
Procedure: (§2) The compounds were also evaluated for their antiproliferative potencies against human cancer cell lines as the potential anticancer agents. […]. The results are presented in Table 3 and expressed as IC50 (μM). In that score, the highest potency was shown by the analogs from the naphtho[1,2-d][1,3]oxazole group 8–10, particularly by derivative 10 with a chlorine atom on the benzenediol moiety.
(§3) In the antiproliferative assay in vitro, the following human cell lines were applied: T47D (breast cancer), SW707 (rectal adenocarcinoma), A549 (non-small cell lung carcinoma) from the American Type Culture Collection (Rockville, MD, USA) and HCV29T (bladder cancer) from the Fibiger Institute, Copenhagen, Denmark. Cytotoxicity assay was performed after 72 h exposure of the cultured cells at the concentration ranging from 0.1 to 100 μg/mL of the tested agents. The SRB test measuring the cell proliferation inhibition in the in vitro culture was applied. The cellular material fixed with TCA was stained with 0.4% sulforhodamine B (Chemie GmbH, Steinheim, Germany) dissolved in 1% acetic acid (POCh, Gliwice, Poland) for 30 min.

[5] = tested on: A549 (non-small cell lung carcinoma) cells; experiment: SRB antiproliferative assay, A549; type: cell-based, human; conditions: Homo sapiens, A549, 72 h, means ± SD
Procedure: as §2, §3

[6] = tested on: T47D (breast cancer) cells; experiment: SRB antiproliferative assay, T47D; type: cell-based, human; conditions: Homo sapiens, T47D, 72 h, means ± SD
Procedure: as §2, §3

[7] = tested on: SW707 (rectal adenocarcinoma) cells; experiment: SRB antiproliferative assay, SW707; type: cell-based, human; conditions: Homo sapiens, SW707, 72 h, means ± SD, read-out: IC50 SW 707
Procedure: as §2, §3

[8] = tested on: human cancer cell lines (HCV29T, T47D, A549, SW707); experiment: SRB antiproliferative assay, all studied cancer cell lines; type: cell-based; conditions: read-out: IC50 range against all studied cells
Procedure: as §2, §3

[9] = tested on: normal mammary gland MCF10A cells; experiment: LDH cytotoxicity assay, MCF10A normal cells; type: cell-based, human; conditions: 72 h
Procedure: (§4) In view of the observed antiproliferative activity, the influence of the tested compounds on the normal human cells—normal mammary gland epiterial cells of the MCF10A line and the normal keratenocytes HaCaT line—was examined (Figure 5). The cells were treated with compounds 3, 8 and 10 in the concentration range from 0.1 µM to 25 µM for 72 h, after which the cell viability was tested by analysis of the level of released lactate dehydrogenase (LDH method).
(§5) Normal human epithelial cells from the mammary gland, MCF10A (a generous gift from our colleague Dr. Saraswati Sukumar (JHU), who obtained them recently from ATCC), and normal human keratinocytes HaCaT (also obtained from ATCC), were cultured in DMEM/F12 medium (Gibco), supplemented with 5% horse serum (Gibco), 5% FBS (Sigma-Aldrich Chemie GmbH, Taufkirchen, Germany ), penicillin streptomycin solution (1×) (Gibco) at 37 °C and 5% CO2. The cells were subcultured twice a week.
(§6) Human epiterial breast cells MCF10A and human keratinocytes HaCaT (1 × 10^4/mL) cells were placed on 96-well plates (Nunc, Roskilde, Denmark). The next day, the cells were exposed to increasing concentrations of compounds 3, 8 and 10 in 0.1, 0.25, 0.5, 1, 2.5, 5, 10 and 25 μM in fresh culture medium. Cytotoxicity was estimated based on the measurements of cytoplasmic lactate dehydrogenase (LDH) activity released from the damaged cells after the 72 h exposure to the compounds. The LDH assay was performed according to the manufacturer’s instructions (Cytotoxicity Detection KitPLUS LDH, Roche, Mannheim, Germany). Absorbance was measured using a microplate at two different wavelengths: “measurement wavelength” (492 nm) and “reference wavelength” (690 nm), using a microplate.

[10] = tested on: normal keratinocytes HaCaT cells; experiment: LDH cytotoxicity assay, HaCaT normal cells; type: cell-based, human; conditions: HaCaT, tested concentration to 25 µM, 72 h
Procedure: as §4, §5, §6

[11] = Lipophilicity by RP-18 HPLC chromatography; type: physicochemical
From the text: The lipophilicity parameter was estimated for the tested compounds as it is an important feature that influences the pharmacokinetic properties of bioactive compounds [46, 47]. Lipophilicity also determines some biological activities, such as the antiproliferative or fungistatic activity. For lipophilicity determination, reversed-phase column chromatography was used, with the octadecyl C-18 stationary phase and MeOH as the organic modifier in the isocratic conditions.
HPLC measurements were performed using a liquid chromatograph (Knauer, Berlin, Germany) with a dual pump and a UV-visible detector. The measurements were made at 254 or 320 nm at room temperature. A Eurosil Bioselect C18 (5 μm, 300 × 4.6 mm) column was applied as the stationary phase. The mobile phase consisted of different volume mixtures of 20 mM acetate buffer as the aqueous phase, and MeOH as the organic modifier (pH 7.4). The different concentrations of MeOH from 0.5 to 0.90 (v/v) range was used, depending on the structure of the compound at 0.05 intervals. The flow rate was 1 mL/min. Retention time of an unretained solute (t0) was determined by the injection of a small amount of acetone dissolved in water.
Regular changes in the retention coefficients of compounds in a function of the organic modifier MeOH content in the mobile phase are described by the Soczewiński–Wachtmeister equation [56]:log k = log kw + S φ(1)
φ—the volume fraction of organic modifier (MeOH) in the mobile phase; log kw—the intercept; S—slope of the regression curve. Log kw refers to the retention parameter of a compound with pure water as the mobile phase.

T1 sequence (P22303 other isoform, or with tags, fused parts or gaps): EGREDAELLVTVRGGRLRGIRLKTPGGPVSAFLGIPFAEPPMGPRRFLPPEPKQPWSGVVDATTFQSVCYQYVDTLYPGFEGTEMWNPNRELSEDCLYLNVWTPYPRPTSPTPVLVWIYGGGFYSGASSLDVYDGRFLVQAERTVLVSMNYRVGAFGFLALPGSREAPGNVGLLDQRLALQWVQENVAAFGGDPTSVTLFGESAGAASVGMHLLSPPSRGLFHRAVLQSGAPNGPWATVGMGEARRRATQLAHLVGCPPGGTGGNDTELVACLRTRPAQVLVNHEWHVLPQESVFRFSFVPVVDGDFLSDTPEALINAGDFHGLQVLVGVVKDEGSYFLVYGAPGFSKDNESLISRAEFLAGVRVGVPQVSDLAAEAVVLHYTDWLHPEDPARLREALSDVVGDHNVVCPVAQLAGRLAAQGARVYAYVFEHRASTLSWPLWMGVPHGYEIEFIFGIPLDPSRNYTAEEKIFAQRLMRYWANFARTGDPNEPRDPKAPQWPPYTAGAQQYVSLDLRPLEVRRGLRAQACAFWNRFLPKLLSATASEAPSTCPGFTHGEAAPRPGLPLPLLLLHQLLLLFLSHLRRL
T2 sequence (P81908 whole entry): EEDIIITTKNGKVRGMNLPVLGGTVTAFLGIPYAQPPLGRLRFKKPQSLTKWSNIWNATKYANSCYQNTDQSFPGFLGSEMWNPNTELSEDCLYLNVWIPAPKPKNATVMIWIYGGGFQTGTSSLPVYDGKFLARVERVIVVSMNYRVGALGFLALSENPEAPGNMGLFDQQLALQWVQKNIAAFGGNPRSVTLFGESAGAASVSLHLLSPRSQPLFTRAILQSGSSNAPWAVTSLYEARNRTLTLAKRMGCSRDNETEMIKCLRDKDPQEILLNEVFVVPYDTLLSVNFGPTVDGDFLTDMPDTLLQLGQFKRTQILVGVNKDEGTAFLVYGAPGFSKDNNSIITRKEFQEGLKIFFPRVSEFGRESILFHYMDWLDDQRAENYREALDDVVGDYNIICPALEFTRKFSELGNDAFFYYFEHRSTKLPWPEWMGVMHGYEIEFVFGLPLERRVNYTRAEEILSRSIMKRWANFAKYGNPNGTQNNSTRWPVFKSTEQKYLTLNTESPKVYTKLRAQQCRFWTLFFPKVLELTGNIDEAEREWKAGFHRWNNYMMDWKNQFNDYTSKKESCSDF

Oc1cc(O)c(-c2nc3c(ccc4ccccc43)o2)cc1Cl [Compound 10, 4-Chloro-6-(naphtho[1,2-d][1,3]oxazol-2-yl)benzene-1,3-diol]
Selectivity for AChE ([1]; IC50 (BChE)/IC50 (AChE)): 1.278
IC50 ([1]; means ± SEM of three independent experiments): 694 ± 11 nM
IC50 [2]: 887 ± 41 nM
IC50 [3]: 633 ± 146 nM
IC50 [4]: 2240 ± 830 nM
IC50 [5]: 2710 ± 120 nM
IC50 [6]: 2180 ± 1050 nM
IC50 [7]: 2890 ± 340 nM
IC50 [8]: 2180 to 2890 nM
change in level of lactate dehydrogenase ([9]; 0.1–5 µM, vs control): statistically significant reduction
toxicity to normal breast cells (LDH release) ([9]; tested concentration to 25 µM): not toxic
toxicity to keratinocytes (LDH release) [10]: not toxic
-S (slope of log k vs MeOH fraction) ([11]; MeOH/acetate buffer, pH 7.4): 4.996
log kw ([11]; pH 7.4, extrapolation to pure water as mobile phase): 4.518
